Article PMC10840383, “Clinical features, functional consequences, and rescue pharmacology of missense GRID1 and GRID2 human variants” (Human Molecular Genetics, 2023)
Changes are numbered by the printed parent chain.

Legend:
GluD1-T649I = biological target: T1, GluD1-T649I (Homo sapiens, UniProt Q9ULK0, T649I); assay: TEVC of constitutive current, Xenopus oocytes expressing GluD1-T649I; type: cell-based; conditions: positive = increase, negative = decrease of activity
T1 construct: expressed in transfected cells; host or cells: Xenopus laevis oocytes injected with cRNA
T1 sequence (Q9ULK0 21-1009 T649I): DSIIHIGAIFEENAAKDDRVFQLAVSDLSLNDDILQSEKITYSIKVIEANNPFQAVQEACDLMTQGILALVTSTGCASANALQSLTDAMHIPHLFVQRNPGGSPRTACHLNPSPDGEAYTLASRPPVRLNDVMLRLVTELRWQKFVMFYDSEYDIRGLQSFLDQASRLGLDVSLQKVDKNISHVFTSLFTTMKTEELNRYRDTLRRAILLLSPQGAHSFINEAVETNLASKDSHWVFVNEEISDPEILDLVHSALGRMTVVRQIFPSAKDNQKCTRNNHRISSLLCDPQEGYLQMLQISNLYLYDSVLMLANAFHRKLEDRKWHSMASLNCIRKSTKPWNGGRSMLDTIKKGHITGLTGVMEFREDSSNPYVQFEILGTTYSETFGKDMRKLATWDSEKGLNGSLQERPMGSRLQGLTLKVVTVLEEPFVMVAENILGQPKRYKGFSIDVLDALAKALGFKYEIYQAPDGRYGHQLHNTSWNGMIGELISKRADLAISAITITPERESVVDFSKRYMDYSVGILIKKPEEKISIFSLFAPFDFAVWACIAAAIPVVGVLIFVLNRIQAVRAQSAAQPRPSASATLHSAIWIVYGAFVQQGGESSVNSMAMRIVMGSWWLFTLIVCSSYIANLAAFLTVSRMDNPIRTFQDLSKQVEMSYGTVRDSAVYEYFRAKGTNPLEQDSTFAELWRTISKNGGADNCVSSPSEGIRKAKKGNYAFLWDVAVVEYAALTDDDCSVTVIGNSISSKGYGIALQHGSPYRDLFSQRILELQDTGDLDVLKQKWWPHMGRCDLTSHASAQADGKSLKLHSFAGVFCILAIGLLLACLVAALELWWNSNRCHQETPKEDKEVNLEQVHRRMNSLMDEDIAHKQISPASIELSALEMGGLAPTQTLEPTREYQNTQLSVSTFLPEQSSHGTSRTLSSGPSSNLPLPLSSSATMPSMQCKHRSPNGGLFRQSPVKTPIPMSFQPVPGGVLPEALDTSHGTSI

GluD1-R341Q = biological target: T2, GluD1-R341Q (Homo sapiens, UniProt Q9ULK0, R341Q); assay: TEVC of constitutive current, Xenopus oocytes expressing GluD1-R341Q; type: cell-based
T2 construct: expressed in transfected cells; host or cells: Xenopus laevis oocytes injected with cRNA
T2 sequence (Q9ULK0 21-1009 R341Q): T1 sequence (Q9ULK0 21-1009 T649I) with R321Q, I629T

| D-Serine effect (Baseline −10 mM D-Serine) (GluD1-T649I; 10 mM D-serine) | Effect on current, in words (GluD1-R341Q) | D-Serine effect (Baseline −10 mM D-Serine) (GluD1-R341Q; 10 mM D-serine, positive = increase, negative = decrease of activity) | Compound | Pentamidine effect (Baseline −100 μM Pentamidine) (GluD1-T649I; 100 μM pentamidine) | Pentamidine effect (Baseline −100 μM Pentamidine) (GluD1-R341Q; 100 μM pentamidine, positive = increase, negative = decrease of activity) |
| --- | --- | --- | --- | --- | --- |
| – | – | – | N=C(N)c1ccc(OCCCCCOc2ccc(C(=N)N)cc2)cc1 [Pentamidine, pentamidine] | −45 ± 9.5 (9) nA | 64 ± 15 (6) nA |
| 8.9 ± 1.2 (9) nA | insensitive | 7.2 ± 1.8 (6) nA | N[C@H](CO)C(=O)O [D-serine] | – | – |
